From a compilation of properties of binary mixtures (doi:10.1016/j.molliq.2014.07.002)

Assay: xn = mol fraction of the nth substance listed
Details: 101 kPa

CCCC[n+]1ccn(C)c1.[Cl-] + CN1CCCC1=O
speed of sound [m/s]
Details | 298.15 K | 303.15 K | 308.15 K | 313.15 K
x1 = 0.0138 | 1575 | 1555 | 1531 | 1527
x2 = 0 | 1874 | 1865 | 1855 | 1827
x2 = 0.01 | – | 1860 | 1848 | –
x2 = 0.0396 | 1853 | 1844 | – | –
x2 = 0.0814 | 1837 | 1829 | 1819 | 1796
x2 = 0.1986 | 1800 | 1790 | 1779 | 1760
x2 = 0.3683 | 1755 | – | – | –
x2 = 0.5125 | 1723 | – | 1688 | 1674
x2 = 0.6367 | – | 1674 | 1654 | –
x2 = 0.704 | 1670 | 1655 | – | 1623
x2 = 0.7466 | 1656 | – | 1621 | 1611
x2 = 0.8415 | 1625 | 1609 | – | –
x2 = 0.8939 | 1606 | 1588 | 1568 | 1559
x2 = 0.9254 | – | – | 1556 | 1552
x2 = 0.9721 | 1579 | 1562 | 1539 | 1536

CN1CCCC1=O + CCCC[n+]1ccn(C)c1.[Cl-]
x1 = 1
Details | speed of sound [m/s]
308.15 K | 1528
313.15 K | 1520

CC[n+]1ccn(C)c1.COS(=O)(=O)[O-] + CN1CCCC1=O
Details | speed of sound, 298.15 K [m/s] | speed of sound, 303.15 K [m/s] | speed of sound, 308.15 K [m/s] | speed of sound, 313.15 K [m/s] | viscosity, 298.15 K [mPa·s] | viscosity, 303.15 K [mPa·s] | viscosity, 308.15 K [mPa·s] | viscosity, 313.15 K [mPa·s]
x1 = 0.0115 | 1579 | 1557 | – | 1518 | 2.22 | 1.88 | – | 1.6
x2 = 0 | 1730 | 1718 | 1707 | 1694 | 84 | 69 | 56.7 | 47.6
x2 = 0.0419 | 1724 | 1708 | 1692 | 1679 | 77 | 63 | 51.3 | 42.8
x2 = 0.0861 | 1718 | 1702 | 1685 | – | 69 | 56 | 45.9 | –
x2 = 0.2085 | 1711 | 1688 | 1663 | 1644 | 53.3 | 42.1 | 33.6 | 27.7
x2 = 0.3825 | 1700 | – | 1651 | 1632 | 35.9 | – | 21.8 | 17.7
x2 = 0.5291 | 1684 | – | 1630 | 1614 | 23.3 | – | 14 | 11.5
x2 = 0.6518 | 1663 | 1638 | – | 1593 | 14.6 | 10.8 | – | 8.2
x2 = 0.718 | 1649 | 1622 | – | 1579 | 10.5 | 8.9 | – | 6.07
x2 = 0.757 | 1639 | 1610 | 1582 | 1566 | 9.2 | 7.3 | 5.82 | 5.22
x2 = 0.8502 | – | 1589 | 1560 | 1545 | – | 4.04 | 3.61 | 3.27
x2 = 0.8983 | 1604 | 1577 | 1544 | 1528 | 4.01 | 3.11 | 2.8 | 2.56
x2 = 0.9298 | 1596 | – | 1536 | 1524 | 3.43 | – | 2.22 | 2.11
x2 = 0.9743 | 1582 | 1560 | 1534 | 1522 | 3.11 | 2.05 | 1.86 | 1.73

CN1CCCC1=O + CC[n+]1ccn(C)c1.COS(=O)(=O)[O-]
x1 = 1
Details | speed of sound [m/s] | viscosity [mPa·s]
298.15 K | 1572 | 1.66
303.15 K | 1552 | 1.49
308.15 K | 1528 | 1.39
